This is an account of results in US9353119B2, “Composition for preventing and treating non-small cell lung cancer, containing pyrazino-triazine derivatives” (JW PHARMACEUTICAL CORPORATION, priority 2011, dated 2016).

Counter-ions that a name gives are not always drawn. Like-named read-outs stand apart in the source and are kept apart here. Where only a bound is given, the exact number is not on record here.

The test system of data set [1] is NCI-H1975 cells. Nature of the data set: In vivo anticancer activity, NCI-H1975 xenograft (Experimental Example 5). Here is the method:
From Day 11 (D11) to Day 22 (D22) after the transplantation, three groups of the NCI-H1975-transplanted mice were administered with a bisodium salt of the compound of Chemical Formula 2-2 or cisplatin as summarized in Table 9, below.
The mean volume of tumors before the experiment (mean starting tumor volume) was 118 mm^3

Data set [2] concerns NCI-H23. Description: In vitro cell growth inhibition (CellTiter-Glo), NCI-H23. The data set is classed as cell-based. The settings on record: Homo sapiens; NCI-H23, 72 hrs. How it is done: (§1) This experiment aims to evaluate the in vitro anticancer activity of the pyrazino-triazine derivative (Chemical Formula 1-1P) of the present invention in various NSCLC cell lines.
(§2) NSCLC cells lines were seeded at a density of 5×10^3 cells/well into 96-well plates. Compound 1-1P and the reference drug doxorubicin were serially diluted by ½ in the concentration range of from 0.001 μM to 1 μM and the cells in each well were treated with each dilution in duplicate, followed by incubation for 72 hours in a 37° C., 5% CO2 incubator. CellTiter-Glo® (Luminescent Cell Viability Assay, #G7573, Promega) was added in an amount of 100 μL to each well and shaken for 2 min to lyze the cells. After incubation for 10 min at room temperature (25° C.), luminescence from each well was on a luminometer (Envision (Perkinelmer).
(§3) The anticancer activity depending on the administration of Compound 1-1P was evaluated over seven different NSCLC cell lines by cell growth inhibition 50 (GI50), a concentration needed to reduce the growth of treated cells to half that of untreated cells, calculated according to the following formula. GI50=(50−(y1−((y1−y2)/(x1−x2))*x1)/((y1−y2)/(x1−x2))
(§4) x1, x2=50% cell kill or lethal concentrations
(§5) y1, y2=cell densities at 50% cell kill or lethal concentrations

Data set [3] deals with NCI-H1650. Description: In vitro cell growth inhibition (CellTiter-Glo), NCI-H1650. Format: cell-based. The note with it: Homo sapiens; NCI-H1650, 72 hrs. How it is done:
as §1, §2, §3, §4, §5

The test system of data set [4] is NCI-H1975. Description: In vitro cell growth inhibition (CellTiter-Glo), NCI-H1975. The data set is classed as cell-based. The settings on record: Homo sapiens; NCI-H1975, 72 hrs. Here is the method: as §1, §2, §3, §4, §5
Background: In ATP-based viability assays light output follows the ATP content of the culture.

For data set [5], the system named is HCC827. Nature of the data set: In vitro cell growth inhibition (CellTiter-Glo), HCC827. The data set is classed as cell-based. The settings on record: Homo sapiens; HCC827, 72 hrs. How it is done: as §1, §2, §3, §4, §5
The subject of data set [6] is NCI-H460. Nature of the data set: In vitro cell growth inhibition (CellTiter-Glo), NCI-H460. The data set is classed as cell-based. The note with it: Homo sapiens; NCI-H460, 72 hrs. How it is done:
as §1, §2, §3, §4, §5

In data set [7] the test system is A549. Nature of the data set: In vitro cell growth inhibition (CellTiter-Glo), A549. The settings on record: Homo sapiens; A549, 72 hrs. The data set is classed as cell-based. How it is done: as §1, §2, §3, §4, §5
The test system of data set [8] is PC6. Description: In vitro cell growth inhibition (CellTiter-Glo), PC6. The data set is classed as cell-based. The note with it: Homo sapiens, PC-6; PC6, 72 hrs. Here is the method:
as §1, §2, §3, §4, §5

Data set [9] concerns NCI-H1975 cells. Description: In vivo anticancer activity, NCI-H1975 xenograft (Experimental Example 1). The arrangement: species or system Balb/c nude mice. The settings on record: for TGI %: Table 7 summary, NCI-H1975 (EGFR TKI resistant). How it is done:
Measurements of body weights and tumor sizes were randomized for n=7 per group using in-house randomization software. The tumor size was calculated from measurements of the longest axis (length, m) and the shortest axis (width, m) according to the following formula: Tumor size (mm^3): Width (mm)×Width (mm)×Length (mm)/2
The anticancer activity depending on the administration was evaluated by tumor growth inhibition, (TGI, %) calculated according to the following formulas.
When the tumor size of the drug-administered group is larger than the initial tumor size: % TGI=100*(1−(tumor volumeDay X−tumor volumeInitial for treated group)/(tumor volumeDay X−tumor volumeInitial for Vehicle group))
When the tumor size of the drug-administered group is smaller than the initial tumor size: % TGI=100+100*(1−(Treated group tumor volumeDayX/Treated group tumor volumeinitial))
Herein, mortality indicated deaths resulting from drug administration.
Herein, maximum body weight loss (MBL) means the largest loss of body weight caused by drug administration and is an important factor for determining maximum tolerable dose (MTD). The change of body weight was expressed as percentage of the body weight just before drug administration (D1). As a rule, the dose at which 10% or more of the body weight was lost was determined as the MTD.

The subject of data set [10] is NCI-H460 cells. The data set is classed as in vivo, Balb/c nude mice. The note with it: for TGI %: Table 7 summary, NCI-H460 (EGFR TKI resistant), Cpd 1-1 given TIW. How it is done:
From Day 6 (D1) to […] (D12) after the transplantation, three groups of the NCI-H460-transplanted mice were administered with compound of Chemical Formula 1-1 or paclitaxel as summarized in Table 3, below.

The subject of data set [11] is HCC827 cells. Description: In vivo anticancer activity, HCC827 xenograft (Experimental Example 3). The note with it: for MBL (%): D11; for TGI %: Table 7 summary, HCC827 (EGFR TKI sensitive), dose not given.
Data set [12] deals with NCI-H1975 cells. Nature of the data set: In vivo anticancer activity, NCI-H1975 xenograft (Experimental Example 6). Further details: species or system Balb/c nude mice. Here is the method: From Day 11 (D11) to Day 22 (D22) after the transplantation, five groups of the NCI-H1975-transplanted mice were administered with compounds 1-3 and 1-5 as summarized in Table 11, below.

In data set [13] the test system is NCI-H1975 cells. Nature of the data set: In vivo anticancer activity, NCI-H1975 xenograft (Experimental Example 8). The arrangement: species or system Balb/c nude mice. The settings on record: Group 2: 60 mg/kg IV BIW for 2 weeks. How it is done: From Day 11 (D11) to Day 22 (D22) after the transplantation, two groups of the NCI-H1975-transplanted mice were administered with compound 1-7 as summarized in Table 13, below.

Setting [14] is: Group 2: 200 mg/kg IV QDx5 for 2 weeks.
[15] abbreviates: Group 3: cisplatin 2.5 mg/kg IV BIW for 2 weeks.
Where [16] appears, read: Group 2: 1-1 100 mg/kg iv once a day, ten injections (D8-12, 15-19).
Where [17] appears, read: Group 3: 1-1 150 mg/kg iv once a day, ten injections (D8-12, 15-19).
Where [18] appears, read: Group 2: 1-1 150 mg/kg iv, six injections (D1, 3, 5, 8, 10, 12).
Setting [19] is: Group 2: 1-1 100 mg/kg iv once a day, 20 injections over four weeks.
[20] abbreviates: Group 3: 1-1 150 mg/kg iv once a day, 20 injections over four weeks.
[21] abbreviates: Group 2: 40 mg/kg IV QDx5 for 2 weeks.
Where [22] appears, read: Group 3: 30 mg/kg IV QDx5 for 2 weeks.
[23] abbreviates: Group 6: paclitaxel 7.5 mg/kg ip once a week, two injections.
[24] abbreviates: Group 3: paclitaxel 20 mg/kg ip (D1, 3, 5, 8, 10, 12).
[25] abbreviates: Group 6: paclitaxel 10 mg/kg ip once per week, four injections.

For `C[C@H]1[C@H]2N(C(=O)CN(C)N2C(=O)NCc2ccccc2)[C@@H](Cc2ccc(OP(=O)(O)O)cc2)C(=O)N1Cc1cccc2cccnc12` [2Na Salt of Cpd. 2-2], in [1] (setting [14]), the “MBL (%)” value was “no loss”, the Mortality is recorded as 0/6, the “TGI % D22” value was determined as 27% and the “Tumor size @D 22 (Mean ± S.E. mm^3)” value was found to be 720 ± 104 mm^3.
Take `N.N.[Cl][Pt][Cl]` [Cisplatin, reference compound]: in data set [1] (setting [15]), the Mortality is 0/6, the “TGI % D22” value stood at 23% and the “Tumor size @D 22 (Mean ± S.E. mm^3)” value came to 750 ± 53 mm^3.
One may read the GI50 as the concentration that inhibits growth by half. Low readings indicate greater sensitivity of the cells, high ones lower sensitivity of the cells. In the case of `C=CCN1CC(=O)N2[C@@H](Cc3ccc(O)cc3)C(=O)N(Cc3cccc4c(C(C)=O)cn(C)c34)C[C@@H]2N1C(=O)NCc1ccccc1` [Compound 1-1P], the GI50 is 67 nM in [2]; 156 nM in [3]; 111 nM in data set [4]; 115 nM in data set [5]; 272 nM in data set [6]; 372 nM in data set [7]. Besides, in [8], the GI50 turned out to be 493 nM.
Take `C=CCN1CC(=O)N2[C@@H](Cc3ccc(OP(=O)([O-])O)cc3)C(=O)N(Cc3cccc4c(C(C)=O)cn(C)c34)C[C@@H]2N1C(=O)NCc1ccccc1.[Na+]` [Compound 1-1]: the “Tumor size on D22 compared with vehicle control” value in data set [9] (D22, dose not given) is “significantly reduced”. In addition, in data set [9] (setting [16]), the Mortality is recorded as 0/7, the “TGI % D22” value is 74% and the “Tumor size @D 22) (Mean ± S.E. mm3)” value was found to be 307 ± 97 mm3. Also, in data set [9] (setting [17]), the Mortality is recorded as 0/7, the “TGI % D22” value stood at 109% and the “Tumor size @D 22) (Mean ± S.E. mm3)” value was 57 ± 22 mm3. Besides, the TGI % in data set [9] (dose not given) was found to be 100%. In addition, in data set [10] (setting [18]), the Mortality is given as 0/6, the “TGI % D12” value came out at 25% and the “Tumor size @D 12 (Mean ± S.E. mm^3)” value came to 1196 ± 247 mm^3. Further, the “MBL (%)” value in data set [10] (Group 2: 1-1 150 mg/kg iv, six injections (D1, 3, 5, 8, 10, 12), @D2) is 4 (@D2) %. In addition, the TGI % in [10] is recorded as 25%. In data set [11] (setting [19]), the Mortality is given as 0/7, the “TGI % D33” value was found to be 50%, the “Tumor size @D 33 (Mean ± S.E. mm^3)” value was 380 ± 29 mm^3 and the “MBL (%)” value is on record as 1 (D11) %. For the same compound, in [11] (setting [20]), the Mortality is 0/7, the “TGI % D33” value was determined as 68%, the “Tumor size @D 33 (Mean ± S.E. mm^3)” value came out at 262 ± 30 mm^3 and the “MBL (%)” value is listed as 1 (D11) %. The same compound yielded a TGI % in data set [11] of 78%.
Take `C=CCN1CC(=O)N2[C@@H](Cc3ccc(OP(=O)(O)O)cc3)C(=O)N(Cc3cccc4c(-c5ccc(C(=O)N6CCCCC6)cc5)cn(C)c34)C[C@@H]2N1C(=O)NCc1ccccc1` [Compound 1-3]: in data set [12] (setting [21]), the Mortality is recorded as 0/6, the “TGI % D22” value is reported as 62% and the “Tumor size @D 22 (Mean ± S.E. mm^3)” value is 571 ± 38 mm^3. Besides, the “MBL (%)” value in [12] (Group 2: 40 mg/kg IV QDx5 for 2 weeks, D19) was 4 (D19) %.
With `C=CCN1CC(=O)N2[C@@H](Cc3ccc(OP(=O)(O)O)cc3)C(=O)N(Cc3cccc4c(C(=O)Nc5ccc(N(C)C)nc5)cn(C)c34)C[C@@H]2N1C(=O)NCc1ccccc1` [Compound 1-5], in data set [12] (setting [22]), the Mortality was 0/6, the “TGI % D22” value is listed as 71% and the “Tumor size @D 22 (Mean ± S.E. mm^3)” value is reported as 464 ± 45 mm^3. Also, the “MBL (%)” value in [12] (Group 3: 30 mg/kg IV QDx5 for 2 weeks, D12) is on record as 5 (D12) %.
Consider `C=CCN1CC(=O)N2[C@@H](Cc3ccc(O)cc3)C(=O)N(Cc3cccc4c(C(=O)Nc5ccc(NCCN6CCOCC6)nc5)cn(C)c34)C[C@@H]2N1C(=O)NCc1ccccc1.Cl` [Compound 1-7], for which, in data set [13], the Mortality was 0/5, the “TGI % D22” value was determined as 41% and the “Tumor size @D 22 (Mean ± S.E. mm^3)” value was 410 mm^3.
As for `CC(=O)O[C@H]1C(=O)[C@@]2(C)[C@H]([C@H](OC(=O)c3ccccc3)[C@]3(O)C[C@H](OC(=O)[C@H](O)[C@@H](NC(=O)c4ccccc4)c4ccccc4)C(C)=C1C3(C)C)[C@]1(OC(C)=O)CO[C@@H]1C[C@@H]2O` [Paclitaxel, reference compound], in data set [9] (setting [23]), the Mortality was 0/7, the “TGI % D22” value is recorded as 28% and the “Tumor size @D 22) (Mean ± S.E. mm3)” value was 736 ± 79 mm3. The compound also displayed a TGI % in data set [9] (dose not given) above 30%. Also, in data set [10] (setting [24]), the Mortality is 0/6, the “TGI % D12” value stood at 15% and the “Tumor size @D 12 (Mean ± S.E. mm^3)” value was determined as 1339 ± 260 mm^3. This compound also showed a TGI % in data set [10] above 15%. Further, in data set [11] (setting [25]), the Mortality is listed as 0/6, the “TGI % D33” value was determined as 18% and the “Tumor size @D 33 (Mean ± S.E. mm^3)” value turned out to be 557 ± 83 mm^3. In data set [11], this compound registered a TGI % above 18%.
